# Laboratory results reported in patent US20150060744A1, “[…] BLUE DYE COMPOUND, BLUE RESIN COMPOSITION FOR COLOR FILTER CONTAINING SAME AND COLOR FILTER USING SAME” (KYUNG SYNTHETIC CO., LTD., priority 2012, published 2015).
# Test: Solubility of blue dye compounds in PGMEA and cyclohexanone
# Type: physicochemical
# Details: for Solubility in PGMEA: solvent PGMEA (propylene glycol monomethyl ether acetate); for Solubility in cyclohexanone: solvent cyclohexanone
Solubility in PGMEA [%],Solubility in cyclohexanone [%],Structure (SMILES)
<1,<3,C=C(C)C(=O)OCCN(CC)c1ccc(C(=C2C=CC(=[N+](CC)CCOC(=O)C(=C)C)C=C2)c2ccc(Nc3ccccc3)c3ccccc23)cc1 [Comp. Ex. 1]
<1,<3,CN(C)c1ccc(C(=C2C=CC(=[N+](C)C)C=C2)c2ccc(Nc3ccccc3)c3ccccc23)cc1 [compound 2]
>10,>10,C=C(C)C(=O)OCCN(CC)c1ccc(C(=C2C=CC(=[N+](CC)CCOC(=O)C(=C)C)C=C2)c2ccc(Nc3ccccc3)c3ccccc23)cc1 [Syn. Ex. 1]
